Target: T1, AAK1 (Homo sapiens, UniProt Q2M2I8)
T1 construct: HA; expressed in transfected cells; host or cells: HEK293F
Assay: HEK281 cell-based assay (phospho-mu2 Western blot in transfected HEK293F cells)
Conditions: 3 hours incubation, read-out: CBA IC50
How it was run: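 After 3 hours at 37° C. with compound (five 3-fold-spaced concentrations, DMEM+0.5% FBS), transiently transfected HEK293F cells expressing full-length human AAK1 and Flag-tagged mu2 were lysed. mu2 phosphorylation was read by anti-phospho-mu2 immunoblot, normalized against total mu2 by anti-Flag blot.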

T1 sequence (Q2M2I8 1-863 isoform Q2M2I8-2): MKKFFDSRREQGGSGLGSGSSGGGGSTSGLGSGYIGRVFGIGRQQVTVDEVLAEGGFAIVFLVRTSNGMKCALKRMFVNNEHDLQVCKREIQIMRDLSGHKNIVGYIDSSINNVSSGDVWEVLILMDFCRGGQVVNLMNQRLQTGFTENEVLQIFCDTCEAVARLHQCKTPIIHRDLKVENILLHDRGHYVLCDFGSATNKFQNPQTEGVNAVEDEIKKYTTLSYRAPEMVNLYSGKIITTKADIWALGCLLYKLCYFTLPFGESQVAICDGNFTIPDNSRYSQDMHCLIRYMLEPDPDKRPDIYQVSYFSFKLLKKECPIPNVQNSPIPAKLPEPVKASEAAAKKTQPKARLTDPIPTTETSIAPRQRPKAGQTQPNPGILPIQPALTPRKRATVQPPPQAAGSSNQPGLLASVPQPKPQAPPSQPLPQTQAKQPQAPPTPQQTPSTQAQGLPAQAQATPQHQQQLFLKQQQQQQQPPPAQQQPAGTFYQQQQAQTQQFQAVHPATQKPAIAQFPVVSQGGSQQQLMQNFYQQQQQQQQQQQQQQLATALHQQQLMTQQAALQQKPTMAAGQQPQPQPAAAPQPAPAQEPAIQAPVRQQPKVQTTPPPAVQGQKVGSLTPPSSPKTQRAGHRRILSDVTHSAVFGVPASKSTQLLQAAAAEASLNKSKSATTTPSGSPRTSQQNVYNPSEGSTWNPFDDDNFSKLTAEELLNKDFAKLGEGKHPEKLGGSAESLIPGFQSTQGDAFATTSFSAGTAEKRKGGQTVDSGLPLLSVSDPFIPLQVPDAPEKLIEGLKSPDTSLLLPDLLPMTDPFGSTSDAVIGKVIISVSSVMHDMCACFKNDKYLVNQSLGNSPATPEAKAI

Compound	IC50 [nM]
CC(C)(C)OCCCNc1ccc2ncc(-c3ccnc(N)c3)n2n1 [3-(2-aminopyridin-4-yl)-N-(3-(tert-butoxy)propyl)imidazo[1,2-b]pyridazin-6-amine]	≤ 1000
CC(C)COCCNc1ccc2ncc(-c3ccc(C(=O)NCCN4CCCC4)cc3)n2n1 [4-(6-((2-isobutoxyethyl)amino)imidazo[1,2-b]pyridazin-3-yl)-N-(2-(pyrrolidin-1-yl)ethyl)benzamide]	≤ 100
CNCCCNc1ccc2ncc(-c3ccc(C(C)=O)s3)n2n1 [1-(5-(6-((3-(methylamino)propyl)amino)imidazo[1,2-b]pyridazin-3-yl)thiophen-2-yl)ethanone]	≤ 1000
COc1cnccc1-c1cnc2ccc(NCCOC(C)C)nn12 [N-(2-isopropoxyethyl)-3-(3-methoxypyridin-4-yl)imidazo[1,2-b]pyridazin-6-amine]	≤ 10
NCc1ccc(-c2cnc3ccc(NCCOC4CCCC4)nn23)cc1 [3-(4-(aminomethyl)phenyl)-N-(2-(cyclopentyloxy)ethyl)imidazo[1,2-b]pyridazin-6-amine]	≤ 100
CCCCNc1ccc2ncc(-c3ccncc3OC)n2n1 [N-butyl-3-(3-methoxypyridin-4-yl)imidazo[1,2-b]pyridazin-6-amine]	≤ 100
CCCCNc1ccc2ncc(-c3ccc(CN)cc3)n2n1 [3-(4-(Aminomethyl)phenyl)-N-butylimidazo[1,2-b]pyridazin-6-amine]	≤ 1000
CCCCNc1ccc2ncc(-c3ccc(C(=O)NCCN(C)C)cc3)n2n1 [4-(6-(butylamino)imidazo[1,2-b]pyridazin-3-yl)-N-(2-(dimethylamino)ethyl)benzamide]	≤ 100
NCc1ccc(-c2cnc3ccc(NCCC4CCCCC4)nn23)cc1 [3-(4-(aminomethyl)phenyl)-N-(2-cyclohexylethyl)imidazo[1,2-b]pyridazin-6-amine]	≤ 100
CNC(=O)c1ccc(-c2cnc3ccc(NCCN(C)C(=O)OC(C)C)nn23)cc1 [isopropyl methyl(2-((3-(4-(methylcarbamoyl)phenyl)imidazo[1,2-b]pyridazin-6-yl)amino)ethyl)carbamate]	≤ 100
CN(CCNc1ccc2ncc(-c3ccc(C#N)cc3)n2n1)C(=O)CC(C)(C)C [N-(2-((3-(4-cyanophenyl)imidazo[1,2-b]pyridazin-6-yl)amino)ethyl)-N,3,3-trimethylbutanamide]	≤ 100
CCCCCNc1ccc2ncc(-c3ccc(C4CCCN4)cc3)n2n1 (stereo not drawn) [Pentyl-[3-(4-pyrrolidin-2-yl-phenyl)-imidazo[1,2-b]pyridazin-6-yl]-amine]	≤ 1000
COc1cnccc1-c1cnc2ccc(NC[C@@H]3CCCCN3C(=O)OC(C)(C)C)nn12 [(S)-tert-butyl 2-(((3-(3-methoxypyridin-4-yl)imidazo[1,2-b]pyridazin-6-yl)amino)methyl)piperidine-1-carboxylate]	≤ 100
COc1ccc(F)cc1-c1cnc2ccc(NCCN(C)C(=O)OC(C)C)nn12 [isopropyl (2-((3-(5-fluoro-2-methoxyphenyl)imidazo[1,2-b]pyridazin-6-yl)amino)ethyl)(methyl)carbamate]	≤ 10
NCc1ccc(-c2cnc3ccc(NCCc4ccccc4OC(F)(F)F)nn23)cc1 [3-(4-(aminomethyl)phenyl)-N-(2-(trifluoromethoxy)phenethyl)imidazo[1,2-b]pyridazin-6-amine]	≤ 10
CCN(CC)CCNC(=O)c1ccc(-c2cnc3ccc(NCCOC(C)C)nn23)cc1 [N-(2-(diethylamino)ethyl)-4-(6-((2-isopropoxyethyl)amino)imidazo[1,2-b]pyridazin-3-yl)benzamide]	≤ 100
CCOC(=O)N(C)CCNc1ccc2ncc(-c3ccncc3OC)n2n1 [ethyl (2-((3-(3-methoxypyridin-4-yl)imidazo[1,2-b]pyridazin-6-yl)amino)ethyl)(methyl)carbamate]	≤ 10

Compound	IC50 [nM]
Cc1nc(C)c(-c2cnc3ccc(NCCOCC(C)C)nn23)s1 [3-(2,4-dimethylthiazol-5-yl)-N-(2-isobutoxyethyl)imidazo[1,2-b]pyridazin-6-amine]	≤ 1000
CC(C)(C)CCNc1ccc2ncc(-c3ccc(COCCN)cc3)n2n1 [3-(4-((2-aminoethoxy)methyl)phenyl)-N-(3,3-dimethylbutyl)imidazo[1,2-b]pyridazin-6-amine]	≤ 100
CCOc1ccccc1CCNc1ccc2ncc(-c3ccc(CN)cc3)n2n1 [3-(4-(aminomethyl)phenyl)-N-(2-ethoxyphenethyl)imidazo[1,2-b]pyridazin-6-amine]	≤ 100
c1ccc(CCCNc2ccc3ncc(-c4ccc(C5CCCN5)cc4)n3n2)cc1 (stereo not drawn) [N-(3-phenylpropyl)-3-(4-(pyrrolidin-2-yl)phenyl)imidazo[1,2-b]pyridazin-6-amine]	≤ 1000
CCCCNc1nn2c(-c3ccc(CN)cc3)cnc2cc1C [[3-(4-Aminomethyl-phenyl)-7-methyl-imidazo[1,2-b]pyridazin-6-yl]-butyl-amine]	≤ 100
CC(C)(C)OCCNc1ccc2ncc(-c3ccc(C4CCCN4)cc3)n2n1 (stereo not drawn) [N-(2-(tert-butoxy)ethyl)-3-(4-(pyrrolidin-2-yl)phenyl)imidazo[1,2-b]pyridazin-6-amine]	≤ 100
CC(C)OC(=O)N(C)CCNc1ccc2ncc(-c3cscn3)n2n1 [isopropyl methyl(2-((3-(thiazol-4-yl)imidazo[1,2-b]pyridazin-6-yl)amino)ethyl)carbamate]	≤ 100
COc1ccccc1-c1cnc2ccc(NCCOCC(C)C)nn12 [N-(2-isobutoxyethyl)-3-(2-methoxyphenyl)imidazo[1,2-b]pyridazin-6-amine]	≤ 1000
NCCNC(=O)c1ccc(-c2cnc3ccc(NCCCc4ccccc4)nn23)cc1 [N-(2-aminoethyl)-4-(6-((3-phenylpropyl)amino)imidazo[1,2-b]pyridazin-3-yl)benzamide]	≤ 1000
CCCCNc1ccc2ncc(-c3ccc([C@H]4CCCN4)cc3)n2n1 [(R)—N-butyl-3-(4-(pyrrolidin-2-yl)phenyl)imidazo[1,2-b]pyridazin-6-amine]	≤ 1000
CCCCNc1ccc2ncc(-c3ccc(C(N)=O)cc3)n2n1 [4-(6-(butylamino)imidazo[1,2-b]pyridazin-3-yl)benzamide]	≤ 100
CC(C)(C)OC(=O)N1CCCC1CCNc1ccc2ncc(-c3ccc(C(N)=O)cc3)n2n1 (stereo not drawn) [tert-butyl 2-(2-((3-(4-carbamoylphenyl)imidazo[1,2-b]pyridazin-6-yl)amino)ethyl)pyrrolidine-1-carboxylate]	≤ 100
CC(=O)c1ccc(-c2cnc3ccc(NCCCN(C)C(=O)OC(C)(C)C)nn23)s1 [tert-butyl (3-((3-(5-acetylthiophen-2-yl)imidazo[1,2-b]pyridazin-6-yl)amino)propyl)(methyl)carbamate]	≤ 100
CN(CCNc1ccc2ncc(-c3ccncc3)n2n1)C(=O)OC(C)(C)C [tert-butyl methyl(2-((3-(pyridin-4-yl)imidazo[1,2-b]pyridazin-6-yl)amino)ethyl)carbamate]	≤ 100
CC(C)(C)OCCCNc1ccc2ncc(-c3ccc(C(=O)NCCN)cc3)n2n1 [N-(2-aminoethyl)-4-(6-((3-(tert-butoxy)propyl)amino)imidazo[1,2-b]pyridazin-3-yl)benzamide]	≤ 1000
CCCCNc1ccc2ncc(-c3ccc(CNC(=O)[C@@H](N)CC(C)C)cc3)n2n1 [(S)-2-amino-N-(4-(6-(butylamino)imidazo[1,2-b]pyridazin-3-yl)benzyl)-4-methylpentanamide]	≤ 100
